Data: US20150246888A1, “ENOYL REDUCTASE INHIBITORS WITH ANTIBACTERIAL ACTIVITY” (priority 2012, published 2015)
≈ marks a conversion by molar mass, not a printed value. Like-named read-outs stand apart in the source and are kept apart here.

Legend:
[1] = biological target: FtuFabI (Francisella tularensis subsp. tularensis, UniProt Q5NGQ3); assay: biochemical; set-up: species or system F. tularensis subsp. tularensis Schu4
[2] = biological target: FabI (Francisella tularensis subsp. tularensis, UniProt Q5NGQ3); assay: biochemical; set-up: species or system F. tularensis subsp. tularensis Schu4
[3] = system: F. tularensis, strain Utah 112; assay: microbe, parasite or virus in culture; format: cell-based; details: Francisella tularensis, UTAH112
[4] = system: B. anthracis, ΔANR strain; assay: microbe, parasite or virus in culture; format: cell-based; details: Bacillus anthracis
[5] = system: S. aureus (ATCC number 29213); assay: microbe, parasite or virus in culture; format: cell-based
[6] = system: MRSA (ATCC number 43300); assay: microbe, parasite or virus in culture; format: cell-based, methicillin-resistant Staphylococcus aureus; details: Staphylococcus aureus
[7] = system: E. coli (BW251113 strain); assay: microbe, parasite or virus in culture; format: cell-based; details: Escherichia coli
[8] = system: E. coli TolC-, an efflux defective mutant; assay: microbe, parasite or virus in culture; format: cell-based; details: Escherichia coli
[9] = system: S. aureus membrane; assay: Membrane depolarization as a function of time; format: cell-based
[10] = system: S. aureus; assay: Cell viability as a function of time (measured with depolarization); format: cell-based

Sequence of FtuFabI (Q5NGQ3 1-260 limits assumed): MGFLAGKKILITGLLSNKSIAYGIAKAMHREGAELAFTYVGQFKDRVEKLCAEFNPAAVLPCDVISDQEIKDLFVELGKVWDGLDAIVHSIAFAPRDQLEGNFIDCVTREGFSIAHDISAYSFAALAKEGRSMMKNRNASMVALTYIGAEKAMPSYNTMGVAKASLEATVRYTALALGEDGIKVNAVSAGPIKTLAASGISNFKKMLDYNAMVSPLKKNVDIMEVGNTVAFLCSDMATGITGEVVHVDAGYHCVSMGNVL
Sequence of FabI (Q5NGQ3 1-260 limits assumed): as above

Row | SMILES | MBC [3] [µg/mL] | MIC [3] [µg/mL] | MIC [4] [µg/mL] | MIC [5] [µg/mL] | MBC ([5]; Staphylococcus aureus) [µg/mL] | MIC ([5]; Staphylococcus aureus) [µg/mL] | MBC [6] [µg/mL] | MIC [6] [µg/mL] | MIC [7] [µg/mL] | MBC [8] [µg/mL] | MIC [8] [µg/mL] | Depolarization (done at 2X MIC) [9] | Cell viability (done at 2X MIC) [10] | further results
1 | c1cc2c(cc1Cn1cnc3cc4c(cc31)CCCC4)OCO2 [Compound 14, 1-(benzo[d][1,3]dioxol-5-ylmethyl)-5,6,7,8-tetrahydro-1H-naphtho[2,3-d]imidazole] | 18.8 (≈ 61.4 µM) | 4.7 (≈ 15.3 µM) | > 12.5 | 4.7 (≈ 15.3 µM) | > 25 | 4.7 (≈ 15.3 µM) | > 25 | 6.3 (≈ 20.6 µM) | > 12.5 | 25 (≈ 81.6 µM) | 9.4 (≈ 30.7 µM) | Clearly no depolarization seen | Clearly bacteriostatic | IC50 ([1]; read-out: IC50): 320 nM; IC50 ([1]; read-out: IC50, Inhibition of FabI): 320 nM; Ki ([1]; read-out: Ki^2 (Calculated using the Cheng-Prusoff Equation)): 260 nM; Ki ([2]; read-out: Ki^1 (Experimental Ki)): 330 ± 40 nM
2 | CC(c1ccc(Cl)c(Cl)c1)n1cnc2cc3c(cc21)CCCC3 (stereo not shown) [Compound 4, 1-(1-(3,4-dichlorophenyl)ethyl)-5,6,7,8-tetrahydro-1H-naphtho[2,3-d]imidazole] | 25 (≈ 72.4 µM) | 3.1 (≈ 8.98 µM) | 3.1 (≈ 8.98 µM) | 3.1 (≈ 8.98 µM) | 25 (≈ 72.4 µM) | 3.1 (≈ 8.98 µM) | 25 (≈ 72.4 µM) | 3.1 (≈ 8.98 µM) | > 12.5 | > 25 | 3.1 (≈ 8.98 µM) | Initially depolarizing (in first 60 min) but cells ‘recover’ and regain polarization compared to control with no compound | Clearly bacteriostatic | IC50 [1]: 630 nM; Ki [1]: 510 nM; Ki [2]: 570 ± 140 nM; MBC [4]: 3.1 µg/mL (≈ 8.98 µM)
